Measured values published in US8097610B2, “Derivative having PPAR agonistic activity” (Shionogi & Co., Ltd., priority 2005, dated 2012).

Columns and labels:
Format in all cases: cell-based
human PPARδ (hPPARδ) = target: T1, human PPARδ (hPPARδ) (Homo sapiens, UniProt Q03181); test: Test for transcriptional activity of PPARδ (GAL4 chimeric transcription factor reporter assay in CHO cells); settings: CHO cells transfected with GAL4-hPPARδ LBD and pG5luc reporter; 24 hours; luciferase activity; concentration showing 1/2 of maximum luciferase activity
T1 construct: δ: aa 139-C-end; α: aa 167-C-end; expressed in transfected cells; host or cells: CHO cells (transient transfection, FuGene)
T1 sequence (Q03181 139-441 limits assumed): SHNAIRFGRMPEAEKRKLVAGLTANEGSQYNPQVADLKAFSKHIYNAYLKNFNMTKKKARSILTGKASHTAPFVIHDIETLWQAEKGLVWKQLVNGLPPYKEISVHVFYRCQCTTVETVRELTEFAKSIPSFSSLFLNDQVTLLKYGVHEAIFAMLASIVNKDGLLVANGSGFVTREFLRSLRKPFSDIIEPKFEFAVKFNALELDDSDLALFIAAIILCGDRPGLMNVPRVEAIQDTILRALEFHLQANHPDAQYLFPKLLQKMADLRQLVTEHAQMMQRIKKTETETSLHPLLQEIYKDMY
Description: (§1) A chimeric transcription factor assay, which is commonly used to detect nuclear receptor activity, was employed to measure PPAR transcriptional activity. Specifically, two plasmids, one that expresses the fusion protein of DNA binding domain of yeast transcription factor GAL4 and a ligand binding domain of a receptor, and a reporter plasmid were transiently transfected to CHO cells. The activity of the promoter containing a recognition sequence of GAL4 coded on the reporter plasmid was used as a parameter to estimate the activity of the receptor.
(§2) Plasmid: The ligand binding domain of human PPARδ (hPPARδ) or α(hPPARα) (δ: aa 139-C-end; α: aa 167-C-end) is obtained by PCR amplification using Human Universal Quick-Clone cDNA (CLONTECH). […] Then, each obtained cDNA fragment was subcloned into pBIND vector (Promega) to construct a plasmid expressing the fusion protein with DNA binding domain of yeast transcription factor GAL4. pG5luc vector (Promega) was used as a reporter plasmid.
(§3) Cell culturing and transfection: CHO cells were cultured in 10% FBS-aMEM. With a 96-well plate (Costar), CHO cells, that were dispersed with trypsin treatment, 20000 cells per well and the two plasmids obtained by the above procedure, 25 ng per well, were transfected with FuGene Reagent (Roche) by following the instruction of the manufacture.
(§4) Measurement of the transcriptional activity: CHO cells 100 μl per well, which were transfected as above, were dispensed into the wells in which a test compound dissolved in DMSO 0.5 μl was spotted in advance. After the cells and a test compound were cultured together for 24 hours in a CO2 incubator, the luciferase activity was measured by adding luciferase substrates, PicaGene LT2.0 (Toyo ink) 100 μl per well. LUMINOUS CT-9000D (DIA-IATRON) is used to measure the activity.

hPPARγ = target: T2, hPPARγ (Homo sapiens, UniProt P37231); test: Transcriptional activity of PPARγ (Table 9; chimeric transcription factor assay)
T2 construct: expressed in transfected cells
T2 sequence (P37231 238-503 limits assumed): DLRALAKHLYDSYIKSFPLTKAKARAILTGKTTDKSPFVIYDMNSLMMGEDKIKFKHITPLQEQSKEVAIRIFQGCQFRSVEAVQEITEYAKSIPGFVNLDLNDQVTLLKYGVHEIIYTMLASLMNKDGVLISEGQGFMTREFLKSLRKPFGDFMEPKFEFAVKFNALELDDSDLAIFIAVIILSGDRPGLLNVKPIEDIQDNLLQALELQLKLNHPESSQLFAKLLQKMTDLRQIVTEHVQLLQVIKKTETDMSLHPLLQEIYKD
Description: as §1, with “receptor. Cell culturing and transfection: CHO cells were cultured in 10% FBS-aMEM. With a 96-well plate (Costar), CHO cells, that were dispersed with trypsin treatment, 20000 cells per well and the two plasmids obtained by the above procedure, 25 ng per well, were transfected with FuGene Reagent (Roche) by following the instruction of the manufacture. […] LUMINOUS […]) is used to measure the activity.” for “receptor.”

human PPARα (hPPARα) = target: T3, human PPARα (hPPARα) (Homo sapiens, UniProt Q07869); test: Test for transcriptional activity of PPARα (GAL4 chimeric transcription factor reporter assay in CHO cells); settings: CHO cells transfected with GAL4-hPPARα LBD and pG5luc reporter; 24 hours; luciferase activity
T3 construct: δ: aa 139-C-end; α: aa 167-C-end; expressed in transfected cells; host or cells: CHO cells (transient transfection, FuGene)
T3 sequence (Q07869 167-468 limits assumed): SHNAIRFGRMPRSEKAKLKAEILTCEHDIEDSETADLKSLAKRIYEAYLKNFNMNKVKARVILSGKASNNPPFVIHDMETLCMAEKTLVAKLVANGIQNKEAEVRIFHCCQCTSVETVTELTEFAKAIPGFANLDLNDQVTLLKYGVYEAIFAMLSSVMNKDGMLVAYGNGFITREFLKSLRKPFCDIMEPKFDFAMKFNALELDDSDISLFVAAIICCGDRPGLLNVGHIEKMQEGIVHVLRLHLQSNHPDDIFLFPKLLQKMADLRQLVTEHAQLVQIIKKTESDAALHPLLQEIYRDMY
Description: as §1, §2, §3, §4

Row | Structure (SMILES) | EC50 (human PPARδ (hPPARδ)) | EC50 (hPPARγ) | EC50 (human PPARα (hPPARα))
1 | Cc1cc(CC(=O)O)cc(CN2CCN(c3nc4ccc(C(F)(F)F)cc4s3)[C@@H](CC(C)C)C2)c1 [Example 474] | 0.0045 µM | 0.2 µM | 0.35 µM
2 | O=C(O)Cc1ccc(CN2CCCN(c3nc4ccc(Cl)cc4s3)CC2)s1 [Example 503] | 0.91 µM | > 10 µM | 1.5 µM
3 | COc1ccc(CC(=O)O)cc1OCC1CCN(c2nc3ccc(Cl)cc3s2)CC1 [Example 519] | 0.02 µM | 0.8 µM | 0.54 µM
4 | CNc1cccc(-c2cnc(N3CCN(CCOc4cc(CC(=O)O)ccc4Cl)[C@@H](C)C3)s2)c1 [Example 562] | 0.029 µM | 1.9 µM | > 10 µM
5 | Cc1cc(CN2C[C@@H](C)N(c3nc4ccc(C(F)(F)F)cc4s3)[C@@H](C)C2)cc(OCC(=O)O)c1 [Example 590] | 0.026 µM | > 10 µM | > 10 µM
6 | CCCCN(Cc1cccc(CC(=O)O)c1)C1CCN(c2nc3ccc(Cl)cc3s2)C1 (stereo not drawn) [Example 612, [3-[[butyl[1-(6-chlorobenzothiazole-2-yl)pyrrolidine-3-yl]amino]methyl]phenyl]acetic acid] | 0.049 µM | 2.2 µM | 0.57 µM
7 | O=C(O)Cc1cccc(OCCN(C2CCCCC2)C2CCN(c3nc4ccc(Cl)cc4s3)C2)c1 (stereo not drawn) [Example 630] | 0.023 µM | 4.2 µM | 2.6 µM
8 | C[C@@H]1CN(C2(CCOc3cc(Cl)cc(CC(=O)O)c3)CCN(c3nc4ccc(Cl)cc4s3)CC2)C[C@H](C)O1 [Example 652] | 0.28 µM | > 10 µM | > 10 µM
9 | C[C@H]1CN(c2nc3ccc(Cl)cc3s2)CCN1CCOc1cc(Cl)cc(CC(=O)O)c1 [Example 679] | 0.013 µM | 0.58 µM | 0.96 µM
10 | C[C@@H]1CN(c2nc3ccc(Cl)cc3s2)C[C@H](C)N1CCOc1ccc(Cl)c(CC(=O)O)c1 [Example 699] | 0.041 µM | 0.76 µM | 1 µM
11 | C[C@@H]1CN(c2ccc(C(F)(F)F)cn2)C[C@H](C)N1CCOc1cc(CC(=O)O)ccc1Cl [Example 707] | 0.019 µM | 3.3 µM | 2.5 µM
12 | CCCC[C@@H]1CN(Cc2cc(C)cc(OCC(=O)O)c2)CCN1c1nc2ccc(OC(F)(F)F)cc2s1 [Example 854, [3-[(R)-3-butyl-4-(6-trifluoromethoxybenzothiazole-2-yl)-piperazine-1-ylmethyl]-5-methylphenoxy]acetic acid] | 0.0044 µM | > 10 µM | > 10 µM
